Residues, ends and D or L forms follow the SMILES beside them.
Key:
[1] = tested on: S. epidermidis [KCTC 1917]; assay type: cell-based, Staphylococcus epidermidis; conditions: broth microdilution, 1% peptone, 18−20 h at 37°C, absorbance at 600 nm
Method: (§1) The antimicrobial activity of the peptides against two Gram-positive bacterial strains and two Gram-negative bacterial strains was examined using the broth microdilution method in sterile 96-well plates. Aliquots (100 µL) of a bacterial suspension at 2×10^6 colony-forming units (CFU)/mL in 1% peptone were added to 100 µL of the peptide solution (serial two-fold dilutions in 1% peptone). After incubation for 18−20 h at 37°C, bacterial growth inhibition was determined by measuring the absorbance at 600 nm with a Microplate Autoreader EL 800 (Bio-Tek Instruments, VT). The minimal inhibitory concentration (MIC) was defined as the minimum peptide concentration inhibited bacteria growth. Two types of Gram-positive bacteria (S. epidermidis [KCTC 1917] and S. aureus [KCTC 1621]) and two types of Gram-negative bacteria (E. coli [KCTC 1682] and P. aeruginosa [KCTC 1637]) were procured from the Korean Collection for Type Cultures (KCTC) at the Korea Research Institute of Bioscience and Biotechnology (KRIBB). MRSA samples (CCARM 3089, CCARM 3090, and CCARM 3095) were obtained from the Culture Collection of Antibiotic-Resistant Microbes (CCARM) at Seoul Women's University (Seoul, Korea).

[2] = tested on: hRBCs versus four bacterial strains; assay: Prokaryotic selectivity (therapeutic index, HC10/GM); conditions: ratio of HC10 to GM; 512 µg/mL used for HC10 >256 and 128 µg/mL for MIC >64
Method: (§2) The prokaryotic selectivity of our designed HDAMPs is defined by the therapeutic index (TI) as a measure of the relative safety of the drug. It is a measure of a peptide's capability to differentiate any pathogen from a host cell. The TI value of each peptide was calculated as the ratio of the HC10 (the peptide concentration that produces 10% hemolysis toward hRBCs) to the geometric mean [GM; the geometric mean of the minimal inhibitory concentration (MIC) against four selected bacterial strains]. Larger values of TI correspond to greater prokaryotic selectivity.

[3] = tested on: four bacterial strains (E. coli, P. aeruginosa, S. epidermidis, S. aureus); assay type: cell-based; conditions: four bacterial strains
Method: as §2, §1

[4] = tested on: human red blood cells (hRBCs); assay: Hemolytic activity; assay type: cell-based; conditions: 4% (v/v) hRBCs in PBS pH 7.4, 1 h at 37°C, absorbance at 405 nm; maximum concentration 256 µg/mL
Method: Hemolytic activity of peptides was tested against hRBCs. Fresh hRBCs were washed three times with phosphate-buffered saline (PBS; 35-mM phosphate buffer containing 150 mM of NaCl, pH 7.4) by centrifugation for 10 min at 1000×g and then re-suspended in PBS. The peptide solutions (serial two-fold dilutions in PBS) were then added to 100 µL of hRBCs in PBS to give a final volume of 200 µL and a final erythrocyte concentration of 4% (v/v). The resulting suspension was incubated with agitation for 1 h at 37°C. The samples were then centrifuged at 1000×g for 5 min, and hemoglobin release was monitored by measuring the absorbance of the supernatant at 405 nm. No hemolysis (blank) and 100% hemolysis controls consisted of hRBCs suspended in PBS and 0.1% Triton X-100, respectively. Percent hemolysis was calculated using the following equation: [drawing 1]

[5] = tested on: P. aeruginosa [KCTC 1637]; assay type: cell-based, Pseudomonas aeruginosa; conditions: broth microdilution, 1% peptone, 18−20 h at 37°C, absorbance at 600 nm
Method: as §1

S. aureus [KCTC 1621] = assay type: cell-based, Staphylococcus aureus; conditions: broth microdilution, 1% peptone, 18−20 h at 37°C, absorbance at 600 nm
Method: as §1

E. coli [KCTC 1682] = assay type: cell-based, Escherichia coli; conditions: broth microdilution, 1% peptone, 18−20 h at 37°C, absorbance at 600 nm
Method: as §1

[6] = Hydrophobicity by RP-HPLC retention time; assay type: physicochemical; conditions: measure of hydrophobicity; Vydac C18 analytical column 5 µm, 4.6 mm ×250 mm; linear gradient 0–90% acetonitrile in water, 0.05% TFA, 60 min
Source text: A series of Trp (W)/Arg (R)–rich peptides [(WR)3-NH2, (WR)2-NH2 and RWR-NH2], reported as being short and potent antimicrobial peptides, were used as sequence templates, and their antimicrobial and hemolytic activities were compared to seven HDAMPs (Figure 2). Matrix-assisted laser-desorption ionization time-of-flight mass spectrometry (MALDI-TOF MS) was used to verify the molecular weight of both Trp/Arg-rich AMPs and the seven HDAMPs. Human cathelicidin LL-37, a potent antimicrobial and anti-inflammatory peptide, served as a positive control for comparing the antimicrobial, hemolytic, and anti-inflammatory activities. The hydrophobicity of all of the peptides was measured with the use of reverse-phase high-performance liquid chromatography (RP-HPLC) retention time (Rt).
All peptides were prepared by Fmoc SPPS methods using Rink amide with an initial loading of 0.61 mmol/g, unless otherwise noted. Fmoc-Arg(Pbf)-OH and other Fmoc-protected amino acids were purchased from Novabiochem. Resins were swollen in DMF for 45 min prior to synthesis. […] The final purity and hydrophobicity of the peptides (>98%) were assessed by RP-HPLC on an analytical Vydac C18 column (4.6 mm ×25 0 mm, 300 Å, 5 µm particle size, Table 3). The molecular masses of purified peptides were determined using MALDI-TOF MS (Shimadzu, Japan).

trypsin = assay: Protease stability by radial diffusion assay; assay type: in vitro ADME; conditions: 5 µL of 10 mg/mL peptide in 25 µL of 0.2-µg/mL trypsin in PBS, 37°C, text: 24 h, method: 6 h
Method: E. coli (KCTC 1682) was grown overnight for 18 h at 37°C in 10 mL of LB broth, and then 10 µl of this culture was inoculated into 10 mL of fresh LB and incubated for an additional 3 h at 37°C to obtain mid-logarithmic-phase organisms. For the radial diffusion assay method, a bacteria suspension (2×10^6 CFU/mL in LB) was mixed with 0.7% agarose. The mixture was poured into a 10-cm petri dish after rapidly dispersing. Five microliters of an aqueous peptide stock solution (10 mg/mL) were added to 25 µL of the 0.2-µg/mL trypsin solution in PBS, respectively, and incubated at 37°C for 6 h. The reaction was stopped by freezing with liquid nitrogen, and then 10-µL aliquots were placed in each circle paper (≈6 mm in diameter) put on the agarose plates and then incubated at 37°C overnight. The diameters of the bacterial clearance zones surrounding the circle paper were measured for the quantitation of inhibitory activities.

**Q.** Which results are given for `N=C(N)NCCC[C@H](NC(=O)[C@H](Cc1c[nH]c2ccccc12)NC(=O)[C@H](CCCNC(=N)N)NC(=O)[C@@H](N)Cc1c[nH]c2ccccc12)C(N)=O` [(WR)2-NH2, reference compound] (H-WRWR-NH2)?
**A.** Minimal Inhibitory Concentration (MIC) S. epidermidis [KCTC 1917] [1]: 8 (11.4) µg/mL; TI (HC10/GM), therapeutic index [2]: 19.7; GM, geometric mean of the MIC values against four bacterial strains [3]: 26 (37) µg/mL; % Hemolysis (HC10), peptide concentration that induces 10% hemolysis against human erythrocytes [4]: >256 (>364.5) µg/mL; Minimal Inhibitory Concentration (MIC) P. aeruginosa [KCTC 1637] [5]: 32 (45.6) µg/mL; Minimal Inhibitory Concentration (MIC) S. aureus [KCTC 1621] (S. aureus [KCTC 1621]): 32 (45.6) µg/mL; Minimal Inhibitory Concentration (MIC) E. coli [KCTC 1682] (E. coli [KCTC 1682]): 32 (45.6) µg/mL

**Q.** For `N=C(N)NCCC[C@H](NC(=O)[C@H](Cc1c[n+](CCCCCCCc2ccccc2)cn1CCCCCCCc1ccccc1)NC(=O)[C@H](CCCNC(=N)N)NC(=O)[C@@H](N)Cc1c[n+](CCCCCCCc2ccccc2)cn1CCCCCCCc1ccccc1)C(N)=O` [Tetrameric HDAMP, His((CH2)7C6H5)2-Arg-His((CH2)7C6H5)2-Arg-NH2], which “RP-HPLC retention time (Rt)” value [6] is on record?
**A.** 37.7 min

**Q.** For `CC[C@H](C)[C@H](NC(=O)CN)C(=O)NCC(=O)N[C@@H](C)C(=O)N[C@H](C(=O)N[C@@H](CC(C)C)C(=O)N[C@@H](CCCCN)C(=O)N[C@H](C(=O)N[C@@H](CC(C)C)C(=O)N[C@H](C(=O)N[C@H](C(=O)NCC(=O)N[C@@H](CC(C)C)C(=O)N1CCC[C@H]1C(=O)N[C@@H](C)C(=O)N[C@@H](CC(C)C)C(=O)N[C@H](C(=O)N[C@@H](CO)C(=O)N[C@@H](Cc1c[nH]c2ccccc12)C(=O)N[C@H](C(=O)N[C@@H](CCCCN)C(=O)N[C@@H](CCCNC(=N)N)C(=O)N[C@@H](CCCCN)C(=O)N[C@@H](CCCNC(=N)N)C(=O)N[C@@H](CCC(N)=O)C(=O)N[C@@H](CCC(N)=O)C(N)=O)[C@@H](C)CC)[C@@H](C)CC)[C@@H](C)O)[C@@H](C)O)C(C)C)C(C)C` [melittin], which “antimicrobial activity against E. coli (KCTC 1682) in the presence of trypsin (in words)” value (trypsin) is on record?
**A.** completely lost their antimicrobial activities

— article PMC3841161, “De Novo Design and Synthesis of Ultra-Short Peptidomimetic Antibiotics Having Dual Antimicrobial and Anti-Inflammatory Activities” (PLoS ONE, 2013)
